Patent publication US9617244B2, “Antibacterial quinoline derivatives” (JANSSEN PHARMACEUTICA NV, priority 2012, dated 2017)
Converted amounts (≈) assume the structure as drawn.

Test system: Staphylococcus aureus (ATCC29213)
Experiment: In-vitro anti-bacterial activity, microtitre plate assay, IC90 determination (non-mycobacterial strains)
Type: cell-based
Conditions: 90% inhibitory concentration for bacterial growth, 24 hours, resazurin fluorescence
In short: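 Growth inhibition measured fluorometrically with resazurin (530/590 nm) after overnight 37 °C incubation under normal atmosphere. Bacteria added at roughly 100 TCID50 per well in Mueller-Hinton broth to five-fold compound dilution series; IC90 reported in μg/ml.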

Compound | IC90 STA B29213 [µg/mL]
COc1nc2ccc(Cl)cc2cc1C(c1ccc(Cl)cc1)C1(O)CCNC(Cc2ccccc2)C1 (stereo not drawn) [Compound 96] | 1.60 (≈ 3.15 µM)
COc1nc2ccc(S(C)(=O)=O)cc2cc1C(c1ccc(Cl)cc1)C1(O)CCNC(Cc2ccccc2)C1 (stereo not drawn) [Compound 97] | >13.84
COc1nc2ccc(Br)cc2cc1C(c1ccc(SC)cc1)C1(O)CCNC(Cc2ccccc2)C1 (stereo not drawn) [Compound 100] | 7.09 (≈ 12.6 µM)
COc1nc2ccc(Br)cc2cc1C(c1ccc(S(C)(=O)=O)cc1)C1(O)CCNC(Cc2ccccc2)C1 (stereo not drawn) [Compound 103] | 14.96 (≈ 25.1 µM)
COc1nc2ccc(Br)cc2cc1C(c1ccc(Cl)cc1)C1(O)CCNC(c2ccc(F)cc2C)C1 (stereo not drawn) [Compound 105] | 1.80 (≈ 3.16 µM)
COc1nc2ccc(SC)cc2cc1C(c1ccccc1)C1(O)CCNC(Cc2ccccc2)C1 (stereo not drawn) [Compound 142] | 3.06 (≈ 6.31 µM)
CS(=O)(=O)c1ccc2[nH]c(=O)c(C(c3ccccc3)C3(O)CCNC(Cc4ccccc4)C3)cc2c1 (stereo not drawn) [Compound 154] | >12.63
CS(=O)(=O)c1ccc2[nH]c(=O)c(C(c3ccccc3)C3(O)CCNC(Cc4ccccc4)C3)cc2c1 (stereo not drawn) [Compound 155] | >12.63
CS(=O)(=O)c1ccc2[nH]c(=O)c(C(c3ccccc3)C3(O)CCNC(Cc4ccccc4)C3)cc2c1 (stereo not drawn) [Compound 156] | >12.63
COc1nc2ccc(S(C)(=O)=O)cc2cc1C(c1ccccc1)C1(O)CCNC(Cc2ccccc2)C1 (stereo not drawn) [Compound 158] | >12.98
COc1nc2ccc(SC)cc2cc1C(c1ccccc1)C1(O)CCNC(c2ccc(F)cc2C)C1 (stereo not drawn) [Compound 168] | 3.17 (≈ 6.31 µM)
COc1nc2ccc(S(C)(=O)=O)cc2cc1C(c1cccc(Cl)c1)C1(O)CCNC(c2ccc(F)cc2C)C1 (stereo not drawn) [Compound 171] | 7.16 (≈ 12.6 µM)
COc1nc2ccc(S(C)(=O)=O)cc2cc1C(c1cccc(Cl)c1)C1(O)CCNC(c2ccc(F)cc2C)C1 (stereo not drawn) [Compound 172] | 7.16 (≈ 12.6 µM)
CSc1ccc2[nH]c(=O)c(C(c3cccc(Cl)c3)C3(O)CCNC(c4ccc(F)cc4C)C3)cc2c1 (stereo not drawn) [Compound 174] | 3.30 (≈ 6.31 µM)
CSc1ccc2[nH]c(=O)c(C(c3cccc(Cl)c3)C3(O)CCNC(c4ccc(F)cc4C)C3)cc2c1 (stereo not drawn) [Compound 175] | 2.34 (≈ 4.47 µM)
CSc1ccc2[nH]c(=O)c(C(c3cccc(Cl)c3)C3(O)CCNC(c4ccc(F)cc4C)C3)cc2c1 (stereo not drawn) [Compound 176] | 3.30 (≈ 6.31 µM)
CSc1ccc2[nH]c(=O)c(C(c3ccccc3)C3(O)CCNC(c4ccc(F)cc4C)C3)cc2c1 (stereo not drawn) [Compound 178] | 6.15 (≈ 12.6 µM)
CSc1ccc2[nH]c(=O)c(C(c3ccccc3)C3(O)CCNC(c4ccc(F)cc4C)C3)cc2c1 (stereo not drawn) [Compound 180] | 3.08 (≈ 6.3 µM)
CSc1ccc2[nH]c(=O)c(C(c3ccccc3)C3(O)CCNC(c4ccc(F)cc4C)C3)cc2c1 (stereo not drawn) [Compound 181] | 6.15 (≈ 12.6 µM)
COc1nc2ccc(S(C)(=O)=O)cc2cc1C(c1ccccc1)C1(O)CCNC(c2ccc(F)cc2C)C1 (stereo not drawn) [Compound 185] | 13.43 (≈ 25.1 µM)
COc1nc2ccc(S(C)(=O)=O)cc2cc1C(c1ccccc1)C1(O)CCNC(c2ccc(F)cc2C)C1 (stereo not drawn) [Compound 186] | 9.51 (≈ 17.8 µM)

Test system: Mycobacterium smegmatis (ATCC607)
Experiment: In-vitro anti-bacterial activity against strain M. Smegmatis ATCC607
Type: cell-based
Conditions: 90% inhibitory concentration for bacterial growth, 48 hours, Alamar Blue fluorescence
In short: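 IC90 (μg/ml) derived from Alamar Blue fluorescence (530/590 nm) after 48 h growth at 37 °C under 5% CO2. About 250 CFU per well in Mueller-Hinton broth faced five-fold serial compound dilutions in BSA-containing wells.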

Compound | IC90 MSM 607 [µg/mL]
COc1nc2ccc(S(C)(=O)=O)cc2cc1C(c1ccc(Cl)cc1)C1(O)CCNC(Cc2ccccc2)C1 (stereo not drawn) [Compound 97] | 13.84 (≈ 25.1 µM)
COc1nc2ccc(Br)cc2cc1C(c1ccc(SC)cc1)C1(O)CCNC(Cc2ccccc2)C1 (stereo not drawn) [Compound 100] | 7.09 (≈ 12.6 µM)
COc1nc2ccc(Br)cc2cc1C(c1ccc(S(C)(=O)=O)cc1)C1(O)CCNC(Cc2ccccc2)C1 (stereo not drawn) [Compound 103] | 14.96 (≈ 25.1 µM)
COc1nc2ccc(Br)cc2cc1C(c1ccc(Cl)cc1)C1(O)CCNC(c2ccc(F)cc2C)C1 (stereo not drawn) [Compound 105] | 0.90 (≈ 1.58 µM)
COc1nc2ccc(SC)cc2cc1C(c1ccccc1)C1(O)CCNC(Cc2ccccc2)C1 (stereo not drawn) [Compound 142] | 2.16 (≈ 4.46 µM)
CS(=O)(=O)c1ccc2[nH]c(=O)c(C(c3ccccc3)C3(O)CCNC(Cc4ccccc4)C3)cc2c1 (stereo not drawn) [Compound 154] | >12.63
CS(=O)(=O)c1ccc2[nH]c(=O)c(C(c3ccccc3)C3(O)CCNC(Cc4ccccc4)C3)cc2c1 (stereo not drawn) [Compound 155] | >12.63
CS(=O)(=O)c1ccc2[nH]c(=O)c(C(c3ccccc3)C3(O)CCNC(Cc4ccccc4)C3)cc2c1 (stereo not drawn) [Compound 156] | 11.25 (≈ 22.4 µM)
COc1nc2ccc(S(C)(=O)=O)cc2cc1C(c1ccccc1)C1(O)CCNC(Cc2ccccc2)C1 (stereo not drawn) [Compound 158] | >12.98
COc1nc2ccc(SC)cc2cc1C(c1ccccc1)C1(O)CCNC(c2ccc(F)cc2C)C1 (stereo not drawn) [Compound 168] | 1.42 (≈ 2.82 µM)
COc1nc2ccc(S(C)(=O)=O)cc2cc1C(c1cccc(Cl)c1)C1(O)CCNC(c2ccc(F)cc2C)C1 (stereo not drawn) [Compound 171] | 5.69 (≈ 10 µM)
COc1nc2ccc(S(C)(=O)=O)cc2cc1C(c1cccc(Cl)c1)C1(O)CCNC(c2ccc(F)cc2C)C1 (stereo not drawn) [Compound 172] | 3.59 (≈ 6.31 µM)
CSc1ccc2[nH]c(=O)c(C(c3cccc(Cl)c3)C3(O)CCNC(c4ccc(F)cc4C)C3)cc2c1 (stereo not drawn) [Compound 174] | 3.30 (≈ 6.31 µM)
CSc1ccc2[nH]c(=O)c(C(c3cccc(Cl)c3)C3(O)CCNC(c4ccc(F)cc4C)C3)cc2c1 (stereo not drawn) [Compound 175] | 3.30 (≈ 6.31 µM)
CSc1ccc2[nH]c(=O)c(C(c3cccc(Cl)c3)C3(O)CCNC(c4ccc(F)cc4C)C3)cc2c1 (stereo not drawn) [Compound 176] | 3.30 (≈ 6.31 µM)
CSc1ccc2[nH]c(=O)c(C(c3ccccc3)C3(O)CCNC(c4ccc(F)cc4C)C3)cc2c1 (stereo not drawn) [Compound 178] | 4.89 (≈ 10 µM)
CSc1ccc2[nH]c(=O)c(C(c3ccccc3)C3(O)CCNC(c4ccc(F)cc4C)C3)cc2c1 (stereo not drawn) [Compound 180] | 3.08 (≈ 6.3 µM)
CSc1ccc2[nH]c(=O)c(C(c3ccccc3)C3(O)CCNC(c4ccc(F)cc4C)C3)cc2c1 (stereo not drawn) [Compound 181] | 9.75 (≈ 20 µM)
COc1nc2ccc(S(C)(=O)=O)cc2cc1C(c1ccccc1)C1(O)CCNC(c2ccc(F)cc2C)C1 (stereo not drawn) [Compound 185] | 8.47 (≈ 15.8 µM)
COc1nc2ccc(S(C)(=O)=O)cc2cc1C(c1ccccc1)C1(O)CCNC(c2ccc(F)cc2C)C1 (stereo not drawn) [Compound 186] | 8.47 (≈ 15.8 µM)

Same assay, conditions: Mycolicibacterium smegmatis, ATCC607, 48 h, 90% inhibitory concentration for bacterial growth, Alamar Blue fluorescence, read-out: IC90 MSM 607

Compound | IC90 [µg/mL]
COc1nc2ccc(Cl)cc2cc1C(c1ccc(Cl)cc1)C1(O)CCNC(Cc2ccccc2)C1 (stereo not drawn) [Compound 96] | 1.01 (≈ 1.99 µM)

Test system: not given
Experiment: not given
Conditions: not given

Compound | melting point [°C]
COc1nc2ccc(Cl)cc2cc1C(c1ccc(Cl)cc1)C1(O)CCNC(Cc2ccccc2)C1 (stereo not drawn) [Compound 96] | 114
COc1nc2ccc(S(C)(=O)=O)cc2cc1C(c1ccc(Cl)cc1)C1(O)CCNC(Cc2ccccc2)C1 (stereo not drawn) [Compound 97] | 120
COc1nc2ccc(Br)cc2cc1C(c1ccc(SC)cc1)C1(O)CCNC(Cc2ccccc2)C1 (stereo not drawn) [Compound 100] | 143
COc1nc2ccc(Br)cc2cc1C(c1ccc(S(C)(=O)=O)cc1)C1(O)CCNC(Cc2ccccc2)C1 (stereo not drawn) [Compound 103] | 135
COc1nc2ccc(Br)cc2cc1C(c1ccc(Cl)cc1)C1(O)CCNC(c2ccc(F)cc2C)C1 (stereo not drawn) [Compound 105] | 149
COc1nc2ccc(SC)cc2cc1C(c1ccccc1)C1(O)CCNC(Cc2ccccc2)C1 (stereo not drawn) [Compound 142] | 190
CS(=O)(=O)c1ccc2[nH]c(=O)c(C(c3ccccc3)C3(O)CCNC(Cc4ccccc4)C3)cc2c1 (stereo not drawn) [Compound 154] | 250
CS(=O)(=O)c1ccc2[nH]c(=O)c(C(c3ccccc3)C3(O)CCNC(Cc4ccccc4)C3)cc2c1 (stereo not drawn) [Compound 155] | 194
CS(=O)(=O)c1ccc2[nH]c(=O)c(C(c3ccccc3)C3(O)CCNC(Cc4ccccc4)C3)cc2c1 (stereo not drawn) [Compound 156] | 254
COc1nc2ccc(S(C)(=O)=O)cc2cc1C(c1ccccc1)C1(O)CCNC(Cc2ccccc2)C1 (stereo not drawn) [Compound 158] | 198
COc1nc2ccc(SC)cc2cc1C(c1ccccc1)C1(O)CCNC(c2ccc(F)cc2C)C1 (stereo not drawn) [Compound 168] | 169
COc1nc2ccc(S(C)(=O)=O)cc2cc1C(c1cccc(Cl)c1)C1(O)CCNC(c2ccc(F)cc2C)C1 (stereo not drawn) [Compound 171] | 161
COc1nc2ccc(S(C)(=O)=O)cc2cc1C(c1cccc(Cl)c1)C1(O)CCNC(c2ccc(F)cc2C)C1 (stereo not drawn) [Compound 172] | 170
CSc1ccc2[nH]c(=O)c(C(c3cccc(Cl)c3)C3(O)CCNC(c4ccc(F)cc4C)C3)cc2c1 (stereo not drawn) [Compound 174] | 171
CSc1ccc2[nH]c(=O)c(C(c3cccc(Cl)c3)C3(O)CCNC(c4ccc(F)cc4C)C3)cc2c1 (stereo not drawn) [Compound 175] | 194
CSc1ccc2[nH]c(=O)c(C(c3cccc(Cl)c3)C3(O)CCNC(c4ccc(F)cc4C)C3)cc2c1 (stereo not drawn) [Compound 176] | 192
CSc1ccc2[nH]c(=O)c(C(c3ccccc3)C3(O)CCNC(c4ccc(F)cc4C)C3)cc2c1 (stereo not drawn) [Compound 178] | > 250
CSc1ccc2[nH]c(=O)c(C(c3ccccc3)C3(O)CCNC(c4ccc(F)cc4C)C3)cc2c1 (stereo not drawn) [Compound 180] | 186
CSc1ccc2[nH]c(=O)c(C(c3ccccc3)C3(O)CCNC(c4ccc(F)cc4C)C3)cc2c1 (stereo not drawn) [Compound 181] | 173
COc1nc2ccc(S(C)(=O)=O)cc2cc1C(c1ccccc1)C1(O)CCNC(c2ccc(F)cc2C)C1 (stereo not drawn) [Compound 185] | 162
COc1nc2ccc(S(C)(=O)=O)cc2cc1C(c1ccccc1)C1(O)CCNC(c2ccc(F)cc2C)C1 (stereo not drawn) [Compound 186] | 166
